Assay results: patent US4559338A, “Soluble quinazolino-1,4-benzodiazepin-5,13-dione derivatives” (Merck & Co., Inc., priority 1985, dated 1985)
Converted amounts (≈) assume the structure as drawn. Counter-ions that a name gives are not always drawn. Like-named read-outs stand apart in the source and are kept apart here. One block for each compound: values may come before it. Where a SMILES comes first, the peptide text is derived from it. [ ]: non-standard residue; d: D form. The star is where a group is joined. sY = N[C@@H](Cc1ccc(OS(=O)(=O)O)cc1)C(=O)O; Cbz = O=C(OCc1ccccc1)*; Boc = CC(C)(C)OC(=O)*

Legend:
[1] = Solubility in deionized water and pH 7.4 phosphate buffer; type: physicochemical
CCK receptor (pancreas) = molecular target: T1, CCK receptor (pancreas) (Rattus norvegicus, UniProt P30551); experiment: CCK receptor binding (pancreas) method, 125I-CCK; design: species or system rat (male Sprague-Dawley); conditions: for IC50: I-CCK-8 Pancreas assay, read-out: Anti-CCK Activity IC50; for effect on the 125I-CCK receptor binding assay (in words): additional protease inhibitors in assay buffer
T1 construct: The whole pancreas of a male Sprague-Dawley rat (200-350 g); from tissue; host or cells: whole pancreas of male Sprague-Dawley rat, washed membrane homogenate
T1 sequence (P30551 1-444): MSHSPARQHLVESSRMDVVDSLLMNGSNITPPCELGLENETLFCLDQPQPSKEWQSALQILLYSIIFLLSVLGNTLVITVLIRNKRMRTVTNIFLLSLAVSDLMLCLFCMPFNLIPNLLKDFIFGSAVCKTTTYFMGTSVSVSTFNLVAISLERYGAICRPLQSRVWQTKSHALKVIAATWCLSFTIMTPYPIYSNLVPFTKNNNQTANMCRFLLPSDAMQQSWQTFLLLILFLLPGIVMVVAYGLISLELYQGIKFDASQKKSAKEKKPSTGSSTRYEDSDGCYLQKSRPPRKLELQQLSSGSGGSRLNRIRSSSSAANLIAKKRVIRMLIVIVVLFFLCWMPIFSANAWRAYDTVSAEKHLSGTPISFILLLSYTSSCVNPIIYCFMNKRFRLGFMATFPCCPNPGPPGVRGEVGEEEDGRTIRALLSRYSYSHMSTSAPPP
Procedure: Screening of the novel compounds according to the present invention to determine biological activity and obtain an IC50 value for them, in order to identify significant CCK-antagonism, may be accomplished using an ^125 I-CCK receptor binding assay and in vitro isolated tissue preparations. These tests involve the following:
CCK receptor binding (pancreas) method
[…] (J. Biol. Chem., 254, 9349-9351, 1979). Receptor binding is performed according to Innis and Snyder (Proc. Natl. Acad. Sci., 77, 6917-6921, 1980), with the minor modification of adding the additional protease inhibitors, phenyl-methane sulfonyl fluoride and o-phenanthroline, which have no effect on the ^125 I-CCK receptor binding assay.
The whole pancreas of a male Sprague-Dawley rat (200-350 g), which has been sacrificed by decapitation, is dissected free of fat tissue and homogenized in 20 volumes of ice-cold 50 mM Tris HCl (pH 7.7 at 25° C.) with a Brinkman Polytron PT-10. The homogenates are centrifuged at 48,000 g for 10 minutes, then the resulting pellets are resuspended in Tris Buffer, centrifuged as above, and resuspended in 200 volumes of binding assay buffer (50 mM Tris HCl, pH 7.7 at 25° C., 5 mM dithiothreitol, 0.1 mM bacitracin, 1.2 mM phenylmethane sulfonyl fluoride and 0.5 mM o-phenanthroline).
For the binding assay, 25 μl of buffer (for total binding), or unlabeled CCK-8 sulfate sufficient to give a final concentration of 1 μM of CCK-8 (for nonspecific binding), or the compounds of the formula of the compounds according to the instant invention ([…]), are added to 450 μl of the membrane suspensions in microfuge tubes. All assays are run in duplicate or triplicate, and the reaction mixtures are incubated at 37° C. for 30 minutes and centrifuged in a Beckman Microfuge (4 minutes) immediately after adding 1 ml of ice-cold incubation buffer. The supernatant is aspirated and discarded, and the pellets are counted with a Beckman Gamma 5000.
The compounds of Examples 1-9 were tested for solubility in deionized water and pH 7.4 phosphate buffer and as CCK-antagonists (pancreas assay) with the following results: […]

CCK receptor = conditions: cited from earlier work
[2] = compound of the earlier filing U.S. Pat. No. 4,530,790; cited from earlier work
[3] = Solubility / stability and absorption stated in the text (no method described); type: physicochemical; conditions: white powder
[4] = deionized water, water, H2O (deionized water), read-out: Solubility
[5] = phosphate buffer, pH 7.4, aqueous buffer, pH 7.4 Buffer, read-out: Solubility

Solubility ([1]; H2O (deionized water)): 10500 µg/mL
IC50 (CCK receptor (pancreas)): 1.4 µM
SMILES: CC(C)C[C@H]1C(=O)N2c3ccccc3[C@@](O)(C[C@@H]3NC(=O)c4ccccc4N4C(=O)c5ccccc5NC34)[C@H]2N1CC(=O)O (stereo partly drawn) [Example 7, 7β-[(1-carboxymethyl-2,3,9,9Aα-tetrahydro-9α-hydroxy-2-(2-methylpropyl)-3-oxo-1H-imidazo(1,2-A)indol-9-yl)methyl]-6,7,7A-8-tetrahydro-5H,13H-quinazolino(3,2-A)-1,4-benzodiazepin-5H,13-dione solvate]

SMILES: CC(C)CC1C(=O)N2c3ccccc3C(O)(C3NC(=O)c4ccccc4-n4c3nc3ccccc3c4=O)C2N1C(=O)CCC(=O)[O-].[Na+] (stereo not drawn) [Example 2, sodium 2,3,9,9Aα-tetrahydro-9α-hydroxy-2-(2-methylpropyl)-γ,3-dioxo-9-(5,6,7,13-tetrahydro-5,13-dioxoquinazolino(3,2-A)-1,4-benzodiazepin-7-yl)-1H-imidazo(1,2-A)indole-1-butanoate]
Solubility ([1]; H2O (deionized water)): 72000 µg/mL
IC50 (CCK receptor (pancreas)): 27 µM

Solubility [1, 4]: 280 µg/mL (≈ 0.44 mM)
Solubility [1, 5]: 9500 µg/mL (≈ 14.9 mM)
IC50 (CCK receptor (pancreas)): 230 µM
SMILES: CC(C)C[C@H]1C(=O)N2c3ccccc3[C@@](O)(C[C@@H]3NC(=O)c4ccccc4-n4c3nc3ccccc3c4=O)[C@H]2N1C(=O)CCC(=O)O [Example 1, 2,3,9,9Aα-tetrahydro-9α-hydroxy-2-(2-methylpropyl)-γ,3-dioxo-9-(5,6,7,13-tetrahydro-5,13-dioxoquinazolino(3,2-A)-1,4-benzodiazepin-7-yl)-1H-imidazo(1,2-A)indole-1-butanoic acid]

SMILES: CC(C)C[C@@H]1N[C@H]2N(C1=O)c1ccccc1[C@@]2(O)C[C@@H]1NC(=O)c2ccccc2-n2c1nc1ccccc1c2=O [formula (I), 7β-((2,3,9,9Aα-tetrahydro-9α-hydroxy-2-(2-methylpropyl)-3-oxo-1H-imidazo-(1,2-A)-indol-9-yl)-methyl)quinazolino(3,2-A)(1,4) benzodiazepin-5,13-(6H,7H)dione]
CCK-antagonist activity (in words) (CCK receptor): has been shown to be a CCK-antagonist
solubility in water (in words) [2]: only slightly soluble in water

Solubility ([1]; H2O (deionized water)): > 5200 µg/mL
IC50 (CCK receptor (pancreas)): 0.8 µM
SMILES: CC(C)C[C@H]1C(=O)N2c3ccccc3[C@@](O)(C[C@@H]3NC(=O)c4ccccc4N4C(=O)c5ccccc5NC34)[C@H]2N1CC(=O)O (stereo partly drawn) [Example 8, 7β-[(1-carboxymethyl-2,3,9,9Aα-tetrahydro-9α-hydroxy-2-(2-methylpropyl)-3-oxo-1H-imidazo(1,2-A)indol-9-yl)methyl]-6,7,7A-8-tetrahydro-5H,13H-quinazolino(3,2-A)-1,4-benzodiazepin-5H,13-dione sodium salt solvate]

SMILES: CSCC[C@H](N)C(=O)N[C@@H](CC(=O)O)C(=O)N[C@@H](Cc1ccccc1)C(N)=O [Met-Asp-Phe-NH2] (H-Met-Asp-Phe-NH2)
CCK-antagonist activity (in words) (CCK receptor): can function as CCK-antagonists

Solubility [1, 4]: 240 µg/mL
IC50 (CCK receptor (pancreas)): 1.8 µM
SMILES: CC(C)C[C@H]1C(=O)N2c3ccccc3[C@@](O)(C[C@@H]3NC(=O)c4ccccc4-n4c3nc3ccccc3c4=O)[C@H]2N1C(=O)[C@@H](N)CCCNC(=O)OCc1ccccc1 [Example 6, 1,2,9,9Aα-tetrahydro-9α-hydroxy-1-[2-amino-5-((phenylmethoxy)carbonyl)aminopentanoyl]-2-(2-methylpropyl)-9-[(5,6,7,13-tetrahydro-5,13-dioxoquinazolino(3,2-A)-1,4-benzodiazepin-7-yl)methyl]-3H-imidazo(1,2-A)indol-3-one hydrochloride]

effect on the 125I-CCK receptor binding assay (in words) (CCK receptor (pancreas)): no effect
SMILES: c1cnc2c(c1)ccc1cccnc12 [o-phenanthroline, reference compound]

SMILES: CCCC(=O)Nc1nc2c(ncn2[C@@H]2O[C@@H]3COP(=O)(O)O[C@H]3[C@H]2OC(=O)CCC)c(=O)[nH]1 [dibutyryl cyclic GMP]
relative CCK antagonist potency within cyclic nucleotide class (in words) (CCK receptor; derivatives of cyclic nucleotides, structure-function studies): the most potent

IC50 (CCK receptor (pancreas)): 85 µM
SMILES: CC(C)C[C@@H]1N[C@H]2N(C1=O)c1ccccc1[C@]2(C[C@@H]1NC(=O)c2ccccc2-n2c1nc1ccccc1c2=O)OC(=O)CCC(=O)O [Example 9, 7β-[(2,3,9,9Aα-tetrahydro-9α-(3-carboxy-1-oxopropoxy)-2-(2-methylpropyl)-3-oxo-1H-imidazo(1,2-A)indol-9-yl)methyl]quinazolino(3,2-A)-1,4-benzodiazepin-5,13-(6H,7H)-dione monohydrate]

water-soluble (in words) [3]: water-soluble
IC50 (CCK receptor (pancreas)): 3.8 µM
SMILES: CC(C)C[C@H]1C(=O)N2c3ccccc3[C@@](O)(C[C@@H]3NC(=O)c4ccccc4-n4c3nc3ccccc3c4=O)[C@H]2N1C(=O)[C@@H](N)CCCCN [Example 3, dihydrochloride]

Solubility ([1]; H2O (deionized water), trihydrate): > 8900 µg/mL
IC50 (CCK receptor (pancreas)): 1.7 µM
SMILES: CC(C)C[C@H]1C(=O)N2c3ccccc3[C@@](O)(C[C@@H]3NC(=O)c4ccccc4N4C(=O)c5ccccc5NC34)[C@H]2N1C(=O)CCC(=O)O (stereo partly drawn) [Example 5, sodium 9-(5,6,7,7A,8,13-hexahydro-5,13-dioxoquinazolino(3,2-A)-1,4-benzodiazepin-7-yl)2,3,9,9A-tetrahydro-9α-hydroxy-2-(2-methylpropyl)-γ,3-dioxo-1H-imidazo(1,2-A)indole-1-butanoate trihydrate]

SMILES: CSCC[C@H](NC(=O)[C@H](Cc1ccc(OS(=O)(=O)O)cc1)NC(=O)OCc1ccccc1)C(=O)NCC(=O)N[C@@H](Cc1c[nH]c2ccccc12)C(=O)N[C@@H](CCSC)C(=O)N[C@@H](CC(=O)O)C(N)=O [Cbz-Tyr(SO3 H)-Met-Gly-Trp-Met-Asp-NH2] (Cbz-[sY]MGWMD-NH2)
CCK-antagonist activity (in words) (CCK receptor): can function as CCK-antagonists

Solubility ([1]; H2O (deionized water), dihydrate): 540 µg/mL
Solubility [1, 5]: 10800 µg/mL
IC50 (CCK receptor (pancreas)): 6.1 µM
SMILES: CC(C)C[C@H]1C(=O)N2c3ccccc3[C@@](O)(C[C@@H]3NC(=O)c4ccccc4N4C(=O)c5ccccc5NC34)[C@H]2N1C(=O)CCC(=O)O (stereo partly drawn) [Example 4, 9-(5,6,7,7A,8,13-hexahydro-5,13-dioxoquinazolino(3,2-A)-1,4-benzodiazepin-7-yl)-2,3,9,9A-tetrahydro-9α-hydroxy-2-(2-methylpropyl)-γ,3-dioxo-1H-imidazo(1,2-A)indole-1-butanoic acid dihydrate]

SMILES: CSCC[C@H](NC(=O)OC(C)(C)C)C(=O)N[C@@H](CC(=O)O)C(=O)N[C@@H](Cc1ccccc1)C(N)=O [Boc-Met-Asp-Phe-NH2] (Boc-Met-Asp-Phe-NH2)
CCK-antagonist activity (in words) (CCK receptor): can function as CCK-antagonists

SMILES: O=S(=O)(F)Cc1ccccc1 [phenyl-methane sulfonyl fluoride, reference compound]
effect on the 125I-CCK receptor binding assay (in words) (CCK receptor (pancreas)): no effect
